Laboratory results published in US20230031406A1, “COMPOUNDS AND COMPOSITIONS FOR TREATING CONDITIONS ASSOCIATED WITH NLRP ACTIVITY” (Novartis AG, priority 2018, published 2023).

system: PMA-differentiated THP-1 cells; experiment: IL-1β production in PMA-differentiated THP-1 cells stimulated with gramicidin (hTHP-1 assay containing 2% fetal bovine serum; Procedures 1 and 2); type: cell-based, human; conditions: Homo sapiens, THP-1, Table B1; 2% fetal bovine serum; class symbols; read-out: Average IC50 of compounds in hTHP-1 assay: hTHP-1 IC50
Procedure, shortened: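 Human monocytic THP-1 cells, matured overnight with PMA at 20 ng/ml, are seeded in low-serum (2% FBS) RPMI. Test compounds, at final concentrations from 100 down to 0.0017 μM, precede gramicidin (5 μM, 2 h) by one hour. Released IL-1β is then determined by HTRF.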

Row | SMILES | IC50 [nM]
1 | CC(C)(O)c1cc(F)c(S(N)(=O)=NC(=O)Nc2c3c(nc4c2CCC4)CCC3)s1 (stereo not shown) [Compound 105, 3-fluoro-N′-((1,2,3,5,6,7-hexahydrodicyclopenta[b,e]pyridin-8-yl)carbamoyl)-5-(2-hydroxypropan-2-yl)thiophene-2-sulfonimidamide] | 40 to 200
2 | CC(C)c1ncc(F)c(C(C)C)c1NC(=O)N=S(N)(=O)c1sc(C(C)(C)O)cc1F (stereo not shown) [Compound 106, 3-Fluoro-N′-((5-fluoro-2,4-diisopropylpyridin-3-yl)carbamoyl)-5-(2-hydroxypropan-2-yl)thiophene-2-sulfonimidamide] | 40 to 200
3 | Cc1sc(S(N)(=O)=NC(=O)Nc2c3c(nc4c2CCC4)CCC3)cc1C(C)(C)O (stereo not shown) [Compound 107, N′-((1,2,3,5,6,7-hexahydrodicyclopenta[b,e]pyridin-8-yl)carbamoyl)-4-(2-hydroxypropan-2-yl)-5-methylthiophene-2-sulfonimidamide] | 200 to 1000
4 | CC(C)c1ccnc(C(C)C)c1NC(=O)N=S(N)(=O)c1cnc(C(C)(C)O)s1 (stereo not shown) [Compound 110, N′-((2,4-diisopropylpyridin-3-yl)carbamoyl)-2-(2-hydroxypropan-2-yl)thiazole-5-sulfonimidamide] | 5000 to 30000
5 | CC(C)(O)c1csc(S(N)(=O)=NC(=O)Nc2c3c(nc4c2CCC42CC2)CCC3)c1 (stereo not shown) [Compound 114] | 40 to 200
6 | CC(C)c1cnc(F)c(C(C)C)c1NC(=O)N=S(N)(=O)c1cnc(C(C)(C)O)s1 (stereo not shown) [Compound 115, N′-((2-fluoro-3,5-diisopropylpyridin-4-yl)carbamoyl)-2-(2-hydroxypropan-2-yl)thiazole-5-sulfonimidamide] | 1000 to 5000
7 | Cc1nc2c(c(NC(=O)N=S(N)(=O)c3cnc(C(C)(C)O)s3)c1C(C)C)CCC2 (stereo not shown) [Compound 116, 2-(2-hydroxypropan-2-yl)-N′-((3-isopropyl-2-methyl-6,7-dihydro-5H-cyclopenta[b]pyridin-4-yl)carbamoyl)thiazole-5-sulfonimidamide] | 5000 to 30000
8 | CCc1c(C)nc2c(c1NC(=O)N=S(N)(=O)c1cnc(C(C)(C)O)s1)CCC2 (stereo not shown) [Compound 117, N′-((3-ethyl-2-methyl-6,7-dihydro-5H-cyclopenta[b]pyridin-4-yl)carbamoyl)-2-(2-hydroxypropan-2-yl)thiazole-5-sulfonimidamide] | 5000 to 30000
9 | CC(C)(O)c1nc(CCO)c(S(N)(=O)=NC(=O)Nc2c3c(nc4c2CCC4)CCC3)s1 (stereo not shown) [Compound 118, N-((1,2,3,5,6,7-hexahydrodicyclopenta[b,e]pyridin-8-yl)carbamoyl)-4-(2-hydroxyethyl)-2-(2-hydroxypropan-2-yl)thiazole-5-sulfonimidamide] | 1000 to 5000
10 | CC(C)n1ccc(S(N)(=O)=NC(=O)Nc2c3c(nc4c2CCC4)CCC3)n1 (stereo not shown) [Compound 119, N′-((1,2,3,5,6,7-hexahydrodicyclopenta[b,e]pyridin-8-yl)carbamoyl)-1-isopropyl-1H-pyrazole-3-sulfonimidamide] | 1000 to 5000
11 | CNS(=O)(=NC(=O)Nc1c2c(nc3c1CCC3)CCC2)c1ccc(CN(C)C)cc1 (stereo not shown) [Compound 120, 4-((Dimethylamino)methyl)-N′-((1,2,3,5,6,7-hexahydrodicyclopenta[b,e]pyridin-8-yl)carbamoyl)-N-methylbenzenesulfonimidamide] | 200 to 1000
12 | CC(C)(O)c1nc(CO)c(S(N)(=O)=NC(=O)Nc2c3c(nc4c2CCC4(C)C)CCC3)s1 (stereo not shown) [Compound 121, N′-((3,3-dimethyl-1,2,3,5,6,7-hexahydrodicyclopenta[b,e]pyridin-8-yl)carbamoyl)-4-(hydroxymethyl)-2-(2-hydroxypropan-2-yl)thiazole-5-sulfonimidamide] | 200 to 1000
13 | CC1(C)CCc2c1nc1c(c2NC(=O)N=S(N)(=O)c2ccn(C(F)F)n2)CCC1 (stereo not shown) [Compound 122, 1-(difluoromethyl)-N′-((3,3-dimethyl-1,2,3,5,6,7-hexahydrodicyclopenta[b,e]pyridin-8-yl)carbamoyl)-1H-pyrazole-3-sulfonimidamide] | 200 to 1000
14 | CC(C)c1csc(S(N)(=O)=NC(=O)Nc2c3c(nc4c2CCC4C)C(C)CC3)c1 (stereo not shown) [Compound 123, N′-((3,5-dimethyl-1,2,3,5,6,7-hexahydrodicyclopenta[b,e]pyridin-8-yl)carbamoyl)-4-isopropylthiophene-2-sulfonimidamide] | 1000 to 5000
15 | Cc1c(C2CC2)nc2c(c1NC(=O)N=S(N)(=O)c1cnc(C(C)(C)O)s1)CCC2 (stereo not shown) [Compound 124, N′-((2-cyclopropyl-3-methyl-6,7-dihydro-5H-cyclopenta[b]pyridin-4-yl)carbamoyl)-2-(2-hydroxypropan-2-yl)thiazole-5-sulfonimidamide] | 200 to 1000
16 | CN(C)Cc1ccc(S(N)(=O)=NC(=O)Nc2c3c(nc4c2CCC4(C)C)CCC3)cc1 (stereo not shown) [Compound 125, N′-((3,3-dimethyl-1,2,3,5,6,7-hexahydrodicyclopenta[b,e]pyridin-8-yl)carbamoyl)-4-((dimethylamino)methyl)benzenesulfonimidamide] | 1000 to 5000
17 | CC(C)n1ccc(S(N)(=O)=NC(=O)Nc2c3c(nc4c2CCC4(C)C)CCC3)n1 (stereo not shown) [Compound 126, N′-((3,3-dimethyl-1,2,3,5,6,7-hexahydrodicyclopenta[b,e]pyridin-8-yl)carbamoyl)-1-isopropyl-1H-pyrazole-3-sulfonimidamide] | 40 to 200
18 | CC(C)(O)c1csc(S(N)(=O)=NC(=O)Nc2c3c(nc4c2CCC4(C)C)CCC3)c1 (stereo not shown) [Compound 127, N′-((3,3-dimethyl-1,2,3,5,6,7-hexahydrodicyclopenta[b,e]pyridin-8-yl)carbamoyl)-4-(2-hydroxypropan-2-yl)thiophene-2-sulfonimidamide] | 40 to 200
19 | CC(C)(O)c1ncc(S(=N)(=O)NC(=O)Nc2c3c(nc4c2CCC4)CCC3)s1 (stereo not shown) [Compound 128, N-((1,2,3,5,6,7-hexahydrodicyclopenta[b,e]pyridin-8-yl)carbamoyl)-2-(2-hydroxypropan-2-yl)thiazole-5-sulfonimidamide] | 200 to 1000
20 | CC1CCc2c1nc1c(c2NC(=O)N=S(N)(=O)c2ccn(C(C)C)n2)CCC1 (stereo not shown) [Compound 129, 1-isopropyl-N′-((3-methyl-1,2,3,5,6,7-hexahydrodicyclopenta[b,e]pyridin-8-yl)carbamoyl)-1H-pyrazole-3-sulfonimidamide] | 200 to 1000
21 | CN(C)Cc1ccc(S(N)(=O)=NC(=O)Nc2c3c(nc4c2CCC4)CCC3)cc1 (stereo not shown) [Compound 130, 4-((dimethylamino)methyl)-N′-((1,2,3,5,6,7-hexahydrodicyclopenta[b,e]pyridin-8-yl)carbamoyl)benzenesulfonimidamide] | 5000 to 30000

same assay, conditions: Homo sapiens, THP-1, Table B1; 2% fetal bovine serum; numeric bounds; read-out: Average IC50 of compounds in hTHP-1 assay: hTHP-1 IC50

Row | SMILES | IC50 [nM]
22 | CC(C)(O)c1ncc(S(N)(=O)=NC(=O)Nc2nc3ccccc3c3c2CCC3)s1 (stereo not shown) [Compound 111, N′-((2,3-dihydro-1H-cyclopenta[c]quinolin-4-yl)carbamoyl)-2-(2-hydroxypropan-2-yl)thiazole-5-sulfonimidamide] | > 30000
23 | CCCc1cc(NC(=O)N=S(N)(=O)c2cnc(C(C)(C)O)s2)c2c(n1)CCC2 (stereo not shown) [Compound 112, 2-(2-hydroxypropan-2-yl)-N′-((2-propyl-6,7-dihydro-5H-cyclopenta[b]pyridin-4-yl)carbamoyl)thiazole-5-sulfonimidamide] | > 30000
24 | CN(C)Cc1ccc(S(=O)(=NC(=O)Nc2c3c(nc4c2CCC4)CCC3)NC(=O)OC(C)(C)C)cc1 (stereo not shown) [Compound 113, tert-butyl (4-((dimethylamino)methyl)-N-((1,2,3,5,6,7-hexahydrodicyclopenta[b,e]pyridin-8-yl)carbamoyl)phenylsulfonimidoyl)carbamate] | > 30000
25 | CC(C)c1ncc(F)c(C(C)C)c1NC(=O)N=S(N)(=O)c1ccc(CN(C)C)cc1 (stereo not shown) [Compound 132, 4-((dimethylamino)methyl)-N′-((5-fluoro-2,4-diisopropylpyridin-3-yl)carbamoyl)benzenesulfon-imidamide] | > 27000
26 | Cc1nc(C)c(C)c(NC(=O)N=S(N)(=O)c2cnc(C(C)(C)O)s2)c1C (stereo not shown) [Compound 133, 2-(2-hydroxypropan-2-yl)-N′-((2,3,5,6,-tetramethylpyridin-4-yl)carbamoyl)thiazole-5-sulfonimidamide] | > 14000

same assay, conditions: Table B1; 2% fetal bovine serum; class symbols; read-out: Average IC50 of compounds in hTHP-1 assay: hTHP-1 IC50

Row | SMILES | IC50 [nM]
27 | Cc1sc(S(N)(=O)=NC(=O)Nc2c3c(nc4c2CCC4C)CCC3)nc1C(C)(C)O (stereo not shown) [Compound 104, 4-(2-Hydroxypropan-2-yl)-5-methyl-N′-((3-methyl-1,2,3,5,6,7-hexahydrodicyclopenta[b,e]pyridin-8-yl)carbamoyl)thiazole-2-sulfonimidamide] | 200 to 1000
28 | CC1CCc2c1nc1c(c2NC(=O)N=S(N)(=O)c2cc(C(C)(C)O)cs2)CCC1C (stereo not shown) [Compound 131, N′-((3,5-dimethyl-1,2,3,5,6,7-hexahydrodicyclopenta[b,e]pyridin-8-yl)carbamoyl)-4-(2-hydroxypropan-2-yl)thiophene-2-sulfonimidamide] | 200 to 1000
29 | CC1CCc2c1nc1c(c2NC(=O)N=S(N)(=O)c2cc(C(C)(C)O)cs2)CCC1C [Compound 131a, (R,S,S) and (R,R,R)-N′-((3,5-dimethyl-1,2,3,5,6,7-hexa-hydrodicyclo-penta[b,e]pyridin-8-yl)carbamoyl)-4-(2-hy-droxypropan-2-yl)thiophene-2-sulfonimidamide] | 200 to 1000
30 | CC1CCc2c1nc1c(c2NC(=O)N=S(N)(=O)c2cc(C(C)(C)O)cs2)CCC1C [Compound 131aab, (R,R,S) and (R,S,R)-N′-((3,5-dimethyl-1,2,3,5,6,7-hexa-hydrodicyclo-penta[b,e]pyridin-8-yl)carbamoyl)-4-(2-hydroxypropan-2-yl)thiophene-2-sulfonimidamide] | 200 to 1000
31 | CC1CCc2c1nc1c(c2NC(=O)N=S(N)(=O)c2cc(C(C)(C)O)cs2)CCC1C [Compound 131b, (S) and (S,R,R) and (S,S,S)-N′-((3,5-dimethyl-1,2,3,5,6,7-hexahydro-dicyclopenta[b,e]py-ridin-8-yl)carbamoyl)-4-(2-hydroxypropan-2-yl)thiophene-2-sulfonimidamide] | 5000 to 30000
